# Source: paper PMC6943619, “Synthesis and Pharmacological Evaluation of Hybrids Targeting Opioid and Neurokinin Receptors” (Molecules, 2019)
# Like-named read-outs stand apart in the source and are kept apart here. Where a SMILES comes first, the peptide text is derived from it. Bridges are numbered along the chain shown (N, C = ends). [ ]: non-standard residue; d: D form. Nle = CCCC[C@H](N)C(=O)O
# Key:
# DOR = target: T1, DOR (Homo sapiens, UniProt P41143); test: Calcium mobilization functional assay, agonist mode; assay type: cell-based; settings: CHO cells co-expressing DOR and GαqG66Di5, n = 5; for DOR pEC50 (CL95%): Fluo-4 AM calcium signal; for DOR α ± SEM: efficacy (intrinsic activity), Emax relative to DPDPE, mean ± SEM
# T1 construct: expressed in transfected cells; host or cells: CHO cells (University of Ferrara), co-expressing GαqG66Di5
# human KOR = target: T2, human KOR (Homo sapiens, UniProt P41145); test: as above; assay type: cell-based; settings: for KOR α ± SEM: efficacy (intrinsic activity), Emax relative to dynorphin A, mean ± SEM
# T2 construct: expressed in transfected cells; host or cells: CHO cells (University of Ferrara), co-expressing Gαqi5
# mice [1] = test: Tolerance development, writhing test after repeated injections; assay type: in vivo; settings: 5 mg/kg i.p. once daily for seven days, writhing test on Day 7, n = 10
# Experimental: To examine whether mice developed tolerance to hybrids 2 and 4, these analogs and analog 1 for comparison were injected once daily (5 mg/kg) for seven consecutive days. After repeated administration, the antinociceptive effect was determined on Day 7, performing the writhing test as above.
# Figure 4 A comparison of the antinociceptive effect of single (Day 1) and repeated (Day 7) i.p. injections of opioid analog 1 and hybrids 2 and 4 at the dose of 5 mg/kg in the writhing test in mice. The data represent mean ± SEM, n = 10. Statistical significance was assessed using one-way ANOVA and a post hoc multiple comparison by the Student–Newman–Keuls test. *** p < 0.001, as compared to control.
# Peptides were administered at the highest dose (5 mg/kg) used before in the writhing test. In the experiment, four new groups of animals (10 mice per group, housed in one cage) underwent repeated injections (i.p.) of saline or the tested compounds (Days 1–7). On Day 7, following saline or peptide administration, the writhing test was performed, as described above. The antinociceptive activity of a compound was compared to the activity obtained after a single injection of this compound in the corresponding dose (5 mg/kg).
# mice [2] = test: Stool collection (stool mass, stool water content); assay type: in vivo; settings: repeated i.p. injections 5 mg/kg, stool collected 90 min after injection on Days 1–6, compared to control group, n = 10
# Experimental: In order to determine the influence of prolonged administration of the tested compounds on gastrointestinal passage, stool was collected for six days from mice used in the tolerance development test.
# Figure 5 Effect of repeated i.p. injections of saline and the tested peptides on stool mass (A), stool water content (B), food intake (C), and water consumption (D). The data represent mean ± SEM, n = 10. Statistical significance was assessed using one-way ANOVA and a post hoc multiple comparison by the Student–Newman–Keuls test. *** p < 0.001, as compared to control.
# After the i.p. injections of saline or peptides (Days 1–6), mice were placed in a separate clean cages and stool was collected for a period of 90 min. Fecal pellets were collected immediately after expulsion to avoid evaporation and placed in closed 1.5 mL tubes. Tubes were weighed to obtain the wet weight of the stool. Then, the tubes were opened and stool was dried overnight at 65 °C and reweighed to obtain the dry weight. The stool water content was calculated from the difference between the wet and dry stool weights.
# human NK1 = human NK1 (Homo sapiens, UniProt P25103); test: Calcium mobilization assay, inhibition response experiments against SP; assay type: cell-based; set-up: expressed in transfected cells; host or cells: CHO cells (gift of Prof. T. Costa, ISS, Rome)
# Experimental: Following aspiration of the loading solution and a washing step, serial dilutions of peptide stock solutions were added.
# The pharmacological terminology adopted in this paper is consistent with International Union of Basic and Clinical Pharmacology (IUPHAR) recommendations. Concentration–response curves were analyzed by nonlinear regression using Graph Pad Prism 6.0 (La Jolla, CA, USA). […] Concentration–response curves were fitted with the four-parameter logistic nonlinear regression model (1) Effect=baseline+Emax−baseline/1+10^logEC50−X·n where X is the agonist concentration and n is the Hill coefficient. Ligand efficacy was expressed as intrinsic activity (α) calculated as a ratio of the peptide Emax to the Emax of the standard agonist (Supplementary Materials, Figure S7). […] All statistical analyses were performed using Graph Pad Prism 6.0 (La Jolla, CA, USA). Differences between groups were analyzed with one-way ANOVA and a post hoc multiple comparison by the Student–Newman–Keuls test. A probability level of 0.05 or smaller was used to indicate statistical significance.
# [3] = CHO cells co-expressing human KOR and Gαqi5, n = 5
# T1 sequence (P41143 whole entry): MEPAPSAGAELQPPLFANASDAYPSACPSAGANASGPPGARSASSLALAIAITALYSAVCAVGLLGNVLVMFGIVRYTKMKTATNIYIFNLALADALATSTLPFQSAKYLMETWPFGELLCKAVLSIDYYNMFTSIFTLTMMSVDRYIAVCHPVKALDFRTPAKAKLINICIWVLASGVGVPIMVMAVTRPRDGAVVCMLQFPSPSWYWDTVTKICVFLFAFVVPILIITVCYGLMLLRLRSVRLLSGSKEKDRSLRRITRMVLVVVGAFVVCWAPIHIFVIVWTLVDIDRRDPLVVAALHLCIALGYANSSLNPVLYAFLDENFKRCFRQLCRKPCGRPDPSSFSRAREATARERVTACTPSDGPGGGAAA
# T2 sequence (P41145 whole entry): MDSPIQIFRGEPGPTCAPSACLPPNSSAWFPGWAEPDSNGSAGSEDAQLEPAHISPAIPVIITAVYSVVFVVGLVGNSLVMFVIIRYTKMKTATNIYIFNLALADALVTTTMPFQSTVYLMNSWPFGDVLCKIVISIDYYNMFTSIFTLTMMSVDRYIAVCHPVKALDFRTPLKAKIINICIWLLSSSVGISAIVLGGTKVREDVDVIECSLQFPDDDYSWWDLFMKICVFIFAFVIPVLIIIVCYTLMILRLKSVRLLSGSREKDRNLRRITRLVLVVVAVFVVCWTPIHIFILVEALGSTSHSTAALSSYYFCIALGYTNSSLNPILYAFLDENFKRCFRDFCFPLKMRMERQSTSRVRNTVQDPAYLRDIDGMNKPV
# Chain of human NK1 (P25103 whole entry): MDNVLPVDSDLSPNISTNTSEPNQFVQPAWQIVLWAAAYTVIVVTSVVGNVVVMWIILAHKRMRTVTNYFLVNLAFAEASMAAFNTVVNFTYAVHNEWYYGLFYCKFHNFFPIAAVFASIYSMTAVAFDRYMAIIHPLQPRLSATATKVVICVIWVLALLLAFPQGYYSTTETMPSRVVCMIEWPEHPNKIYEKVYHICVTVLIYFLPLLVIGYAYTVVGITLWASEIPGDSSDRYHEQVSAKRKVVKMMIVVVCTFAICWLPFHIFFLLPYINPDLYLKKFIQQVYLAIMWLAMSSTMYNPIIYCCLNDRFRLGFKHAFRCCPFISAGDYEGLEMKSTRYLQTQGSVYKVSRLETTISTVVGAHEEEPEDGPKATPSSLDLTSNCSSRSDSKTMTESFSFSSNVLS
SMILES,DOR pEC50 (CL95%) (DOR),DOR α ± SEM (DOR),"EC50 (human KOR; CHO cells co-expressing human KOR and Gαqi5, Fluo-4 AM calcium signal, n = 5, read-out: KOR pEC50 (CL95%) (converted)) [nM]",KOR α ± SEM (human KOR; [3]),tolerance development (analgesic activity on Day 7 versus Day 1) (mice [1]),stool mass (constipation) (mice [2]),Kb (human NK1) [nM],EC50 (human KOR) [nM]
"CCCC[C@H](NC(=O)[C@H](CC(C)C)NC(=O)[C@@H](Cc1c[nH]c2ccccc12)NC(=O)[C@H](Cc1ccccc1)NC(=O)[C@@H](Cc1c[nH]c2ccccc12)NC(=O)[C@H](CC(N)=O)NC(=O)[C@@H]1CC(=O)NCCCC[C@@H](NC(=O)[C@@H](N)Cc2ccc(O)cc2)C(=O)N[C@@H](Cc2ccccc2)C(=O)N[C@@H](Cc2ccccc2)C(=O)N1)C(N)=O [compound 2, Tyr-[D-Lys-Phe-Phe-Asp]-Asn-D-Trp-Phe-D-Trp-Leu-Nle-NH2] (H-Y[dK]FFDN[dW]F[dW]L[Nle]-NH2; lactam 2-5)",Crc incomplete,Crc incomplete,9.77,0.99 ± 0.05,did not cause tolerance development,no statistically significant differences,46.8,
"CSCC[C@H](NC(=O)[C@H](CC(C)C)NC(=O)CNC(=O)[C@H](Cc1ccccc1)NC(=O)[C@H](Cc1ccccc1)NC(=O)[C@H](CCC(N)=O)NC(=O)[C@@H]1CC(=O)NCCCC[C@@H](NC(=O)[C@@H](N)Cc2ccc(O)cc2)C(=O)N[C@@H](Cc2ccccc2)C(=O)N[C@@H](Cc2ccccc2)C(=O)N1)C(N)=O [compound 4, Tyr-[D-Lys-Phe-Phe-Asp]-Gln-Phe-Phe-Gly-Leu-Met-NH2] (H-Y[dK]FFDQFFGLM-NH2; lactam 2-5)",Crc incomplete,Crc incomplete,,0.92 ± 0.05,did not cause tolerance development,no statistically significant differences,,14.1
